{"source": "PubChem BioAssay AID1053161", "about": "(Broad Institute, 2014)", "system": "HepG2 LDLR mRNA, qPCR, 6 h", "experiment": "cholesterol-dependence of LDLR transcript changes – cell-based, HepG2, RT-PCR, cherry-picked dose, mechanism study for Trib1 inducer project, late-stage follow-up (AID 1053161)", "settings": "active compounds read high"}
{"smiles": "CN1C(=O)c2cc(NC(=O)c3ccc(C(F)(F)F)cc3)ccc2OC[C@@H]2O[C@H](CC(=O)NC3Cc4ccccc4C3)CC[C@@H]21", "values": [{"measurement": "fold induction", "result": 2.5}]}
